pIC50: −log10 of the molar value.

This experiment deals with human lung tryptase. Put plainly: β-Tryptase In-Vitro Enzyme Assay. Conditions: human lung tryptase 1 nM, substrate H-D-HHT-Ala-Arg-pNa 500 μM, pH 7.4, room temperature. It counts as biochemical. How it is done:
The β-tryptase assay was conducted with human lung tryptase (Cortex Biochem #CP3033) in an aqueous buffer (10 mM Tris, 10 mM Hepes, 150 mM NaCl, 0.1% PEG 8000, pH 7.4) using the chromogenic substrate H-D-HHT-Ala-Arg-pNa. […] Percent inhibition was calculated by comparing the initial reaction velocity of samples without inhibitor to those with inhibitor. The initial reaction velocities were analyzed using Microsoft Excel.
As a reminder, the pIC50 is the negative decadic logarithm of the IC50, by convention in mol/L. A higher pIC50 goes with a low IC50. The compound `NCc1ccc2c(c1)C1(CCN(C(=O)/C=C/c3ccccc3Cl)CC1)CO2` [Cpd 186, (E)-1-(2-chloro-phenylethenyl)carbonyl-5′-aminomethyl-spiro[piperidine-4,3′-(2H)-benzo[b]furan]] showed a pIC50 of 7.28. `NCc1ccc2c(c1)C1(CCN(C(=O)/C=C/c3ccncc3)CC1)CO2` [Cpd 244, (E)-1-(pyridin-4-ylethenyl)carbonyl-5′-aminomethyl-spiro[piperidine-4,3′-(2H)-benzo[b]furan]] showed a pIC50 of 5.60.

Take `NCc1ccc2c(c1)C1(CCN(C(=O)c3ccc(F)c(Cl)c3)CC1)CO2` [Cpd 27, 1-(3-chloro-4-fluoro-phenyl)carbonyl-5′-aminomethyl-spiro[piperidine-4,3′-(2H)-benzo[b]furan]]: the pIC50 is 7.47. Compound `CC(C)Sc1sc(C(=O)N2CCC3(CC2)COc2ccc(CN)cc23)c2c1C(=O)CC(C)(C)C2` [Cpd 225, 1-(3-isopropylthio-4-oxo-6,6-dimethyl-6,7-dihydro-5H-benzo[c]thien-1-yl)carbonyl-5′-aminomethyl-spiro[piperidine-4,3′-(2H)-benzo[b]furan]] showed a pIC50 of 7.33. Next, `NCc1ccc2c(c1)C1(CCN(C(=O)c3ccc(C#Cc4ccccc4)o3)CC1)CN2C(=O)Cc1nnn[nH]1` [Cpd 330, 1-(5-phenylethynyl-furan-2-yl)carbonyl-1′-(2-1H-tetrazol-5-yl-1-oxo-ethyl)-5′-aminomethyl-spiro[piperidine-4,3′-(2H)-indole]]: 7.60; `NCc1ccc2c(c1)C1(CCN(C(=O)c3ccc(CCc4ccccc4)o3)CC1)CO2` [Cpd 107, 1-(5-phenethyl-furan-2-yl)carbonyl-5′-aminomethyl-spiro[piperidine-4,3′-(2H)-benzo[b]furan]]: 7.09; `CNNC1CC(S(=O)(=O)N2CC3(CCN(C(=O)c4ccc(C#Cc5ccccc5)o4)CC3)c3cc(CN)ccc32)CS1(=O)=O` (stereo not shown) [Cpd 338, 1-(5-phenylethynyl-furan-2-yl)carbonyl-1′-[5-(N′-methyl-hydrazino)-1,1-dioxo-3,4,5-trihydro-(2H)-thien-3-yl]sulfonyl-5′-aminomethyl-spiro[piperidine-4,3′-(2H)-indole]]: 7.14. As to `CC(C)(C)c1ccc(OCc2ccc(C(=O)N3CCC4(CC3)COc3ccc(CN)cc34)o2)cc1` [Cpd 178, 1-[5-(4-tert-butyl-phenoxymethyl)-furan-2-yl]carbonyl-5′-aminomethyl-spiro[piperidine-4,3′-(2H)-benzo[b]furan]], the pIC50 was 6.36.

Consider `NCc1ccc2c(c1)C1(CCN(C(=O)/C=C\c3c[nH]cn3)CC1)CO2` [Cpd 243, (Z)-1-(imidazol-4-ylethenyl)carbonyl-5′-aminomethyl-spiro[piperidine-4,3′-(2H)-benzo[b]furan]], for which the pIC50 was 5.51. Take `NCc1ccc2c(c1)C1(CCN(C(=O)c3cc4c(F)cccc4s3)CC1)CO2` [Cpd 168, 1-(4-fluoro-benzo[b]thien-2-yl)carbonyl-5′-aminomethyl-spiro[piperidine-4,3′-(2H)-benzo[b]furan]]: the pIC50 is 7.32. In turn, `COC(=O)N1CC2(CCN(C(=O)c3ccc(C#Cc4ccccc4)o3)CC2)c2cc(CN)ccc21` [Cpd 323, 1-(5-phenylethynyl-furan-2-yl)carbonyl-1′-methoxycarbonyl-5′-aminomethyl-spiro[piperidine-4,3′-(2H)-indole]] showed a pIC50 of 6.96. In the case of `N#C/C(=C\c1ccccc1)C(=O)N1CCC2(CC1)COc1ccc(CN)cc12` [Cpd 248, (E)-1-(1-cyano-2-phenylethenyl)carbonyl-5′-aminomethyl-spiro[piperidine-4,3′-(2H)-benzo[b]furan]], the negative logarithm of the IC50 (pIC50) was 6.48. The compound `COc1ccc(CN2C(=O)c3ccc(CN)cc3C23CCN(C(=O)c2ccc(C#Cc4ccccc4)o2)CC3)c(OC)c1` [Cpd 316, 1-(5-phenylethynyl-furan-2-yl)carbonyl-1′-oxo-2′-(2,4-dimethoxy-benzyl)-5′-aminomethyl-spiro[piperidine-4,3′-1H-isoindole]] had a pIC50 of 7.13.
